Consider 15 molecules from patent US9567322B2, “Substituted tetrahydropyrans and method of use” (AbbVie S.á.r.l., priority 2014, dated 2017).

SMILES strings stand for the structures.

One test addresses T1, F508delCFTR (Homo sapiens, UniProt P13569, DEL508-508).
T1 construct: expressed in transfected cells; host or cells: CFBE41o- (CFBE41o-F508delCFTR-HRP), doxycycline-inducible
Nature of the test: Cell Surface Expression-Horse Radish Peroxidase (CSE-HRP) assay. The test is classed as cell-based. As to conditions: CFBE41o-F508delCFTR-HRP cells; for EC50: cell surface expression, luminescence readout, 18-24 hours at 33° C., highest concentration tested 20 μM, 8-point curve; for Maximum % activity: maximum at any tested concentration, normalized to on-plate positive control (3 μM) and DMSO. The essentials: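 CFBE41o- cells expressing F508delCFTR with HRP in the fourth extracellular loop were doxycycline-induced (0.5 μg/mL) for 72 h at 37 °C, then treated 18-24 h at 33 °C with an 8-point 3-fold series from 20 μM. Surface HRP luminescence (luminol) was normalized to DMSO and positive control; EC50 came from variable-slope sigmoidal fits of triplicate plates.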

A further test concerns the target T2, F508del/F508del CFTR (Homo sapiens, UniProt P13569, DEL508-508).
T2 construct: cells isolated from CF patients with the homozygous mutation; endogenous in cells; host or cells: primary human bronchial epithelial (hBE) cells from F508del/F508del CF patients
Nature of the test: Transepithelial Clamp Circuit (TECC-24) conductance assay on primary human bronchial epithelial cells. The test is classed as cell-based. As to conditions: primary hBE cells from F508del/F508delCFTR patients; for EC50: equivalent short circuit current (Ieq), correctors 18-24 hours at 37° C., with control potentiator, 6 test concentrations; for Maximum % activity: relative to positive control (3 μM) coupled with control potentiator = 100%. From the text:
Transepithelial Clamp Circuit on Human Bronchial Epithelial Cells Conductance Assay:
A cell based assay using the primary human bronchial epithelial cells (hBE) was used as a secondary assay to test novel F508delCFTR correctors for their activity on primary hBE cells with F508del/F508del CFTR mutation. The assay used a TECC-24 (Transepithelial Clamp Circuit for 24 wells) instrument that measures the functionality of the mutated channel by measuring the equivalent short circuit current (Ieq) generated by the polarized epithelial cells. The instrument works by measuring the transepithelial potential difference (Vt) and transepithelial resistance (Rt) in an open circuit format, and the Ieq is calculated by using Ohms law (Ieq=Vt/Rt). The assay was run in a 24-well format and all 24-wells were measured at the same time point giving a higher throughput for this assay.
Primary human bronchial epithelial (hBE) cells from F508del/F508delCFTR patients were expanded from 1×10^6 to 250×10^6 cells (Neuberger T, Burton B, Clark H and VanGoor F; Cystic Fibrosis, Methods in Mole Biol 741; eds. Amaral M D and Kunzelmann K, 2011). For this purpose, cells isolated from CF patients with the homozygous mutation were seeded onto 24 well Corning (Cat #3378) filter plates that were coated with 3T3 conditioned media and grown at an air-liquid interface for 35 days using an Ultroser® G supplemented differentiation media. Apical surface mucus was removed 72 hours before the experiment using 3 mM dithiothreitol (DTT) in phosphate buffered saline (PBS). The apical surface was washed again 24 hours before the experiment using PBS. The cells were incubated with the desired dose response of the corrector compounds 18-24 hours at 37° C., 5% CO2. The corrector compounds are only added on the basolateral side of the epithelial cells.
On the day of measuring the corrector activity on the TECC, the cells were switched into a bicarbonate and serum free F-12 Coon's medium and allowed to equilibrate for 90 minutes in a CO2 free incubator. At the time of measurement, the apical and basolateral sides of the filter were bathed with the F-12 Coon's modification media (with 20 mM 4-(2-hydroxyethyl)-1-piperazineethanesulfonic acid (HEPES), pH 7.4 (using 1 M tris(hydroxymethyl)aminomethane (Tris)), and the measurements were made at 36.5° C. Transepithelial voltage (Vt) and transepithelial resistance (Rt) were measured using a 24 channel transepithelial current clamp (TECC-24). Current responses to the sequential addition of benzamil (apical 6 M addition; for inhibiting epithelial ENaC channel), forskolin (apical and basolateral 10 M addition; for activating the CFTR channel), control potentiator (N-(3-carbamoyl-5,5,7,7-tetramethyl-4,7-dihydro-5H-thieno[2,3-c]pyran-2-yl)-1H-pyrazole-5-carboxamide; apical and basolateral 1 M addition; for potentiating the CFTR channel) and bumetanide (basolateral 20 μM addition; for inhibiting the Na:2Cl:K co-transporter, an indirect measure of inhibiting the Cl-secretion driven by CFTR channel) were measured.
All plates contained negative controls (dimethyl sulfoxide, DMSO) which coupled with the control potentiator (N-(3-carbamoyl-5,5,7,7-tetramethyl-4,7-dihydro-5H-thieno[2,3-c]pyran-2-yl)-1H-pyrazole-5-carboxamide) sets the null response and positive controls (3 μM of 3-[(2R,4R)-4-({[1-(2,2-difluoro-1,3-benzodioxol-5-yl)cyclopropyl]carbonyl}amino)-7-methoxy-3,4-dihydro-2H-chromen-2-yl]benzoic acid) coupled with the control potentiator sets the 100% response to measure the correction of the mutated CFTR channel. The maximum percent activity is reported relative to the positive control value.
The % activity measured at each of the 6 test concentrations of the test compound was normalized to the on-plate positive control using the following formula: % activity=[(test compound response−DMSO response)/(positive control response−DMSO response)]*100 […]

T2 sequence (P13569 with tags, fused parts or gaps DEL508-508): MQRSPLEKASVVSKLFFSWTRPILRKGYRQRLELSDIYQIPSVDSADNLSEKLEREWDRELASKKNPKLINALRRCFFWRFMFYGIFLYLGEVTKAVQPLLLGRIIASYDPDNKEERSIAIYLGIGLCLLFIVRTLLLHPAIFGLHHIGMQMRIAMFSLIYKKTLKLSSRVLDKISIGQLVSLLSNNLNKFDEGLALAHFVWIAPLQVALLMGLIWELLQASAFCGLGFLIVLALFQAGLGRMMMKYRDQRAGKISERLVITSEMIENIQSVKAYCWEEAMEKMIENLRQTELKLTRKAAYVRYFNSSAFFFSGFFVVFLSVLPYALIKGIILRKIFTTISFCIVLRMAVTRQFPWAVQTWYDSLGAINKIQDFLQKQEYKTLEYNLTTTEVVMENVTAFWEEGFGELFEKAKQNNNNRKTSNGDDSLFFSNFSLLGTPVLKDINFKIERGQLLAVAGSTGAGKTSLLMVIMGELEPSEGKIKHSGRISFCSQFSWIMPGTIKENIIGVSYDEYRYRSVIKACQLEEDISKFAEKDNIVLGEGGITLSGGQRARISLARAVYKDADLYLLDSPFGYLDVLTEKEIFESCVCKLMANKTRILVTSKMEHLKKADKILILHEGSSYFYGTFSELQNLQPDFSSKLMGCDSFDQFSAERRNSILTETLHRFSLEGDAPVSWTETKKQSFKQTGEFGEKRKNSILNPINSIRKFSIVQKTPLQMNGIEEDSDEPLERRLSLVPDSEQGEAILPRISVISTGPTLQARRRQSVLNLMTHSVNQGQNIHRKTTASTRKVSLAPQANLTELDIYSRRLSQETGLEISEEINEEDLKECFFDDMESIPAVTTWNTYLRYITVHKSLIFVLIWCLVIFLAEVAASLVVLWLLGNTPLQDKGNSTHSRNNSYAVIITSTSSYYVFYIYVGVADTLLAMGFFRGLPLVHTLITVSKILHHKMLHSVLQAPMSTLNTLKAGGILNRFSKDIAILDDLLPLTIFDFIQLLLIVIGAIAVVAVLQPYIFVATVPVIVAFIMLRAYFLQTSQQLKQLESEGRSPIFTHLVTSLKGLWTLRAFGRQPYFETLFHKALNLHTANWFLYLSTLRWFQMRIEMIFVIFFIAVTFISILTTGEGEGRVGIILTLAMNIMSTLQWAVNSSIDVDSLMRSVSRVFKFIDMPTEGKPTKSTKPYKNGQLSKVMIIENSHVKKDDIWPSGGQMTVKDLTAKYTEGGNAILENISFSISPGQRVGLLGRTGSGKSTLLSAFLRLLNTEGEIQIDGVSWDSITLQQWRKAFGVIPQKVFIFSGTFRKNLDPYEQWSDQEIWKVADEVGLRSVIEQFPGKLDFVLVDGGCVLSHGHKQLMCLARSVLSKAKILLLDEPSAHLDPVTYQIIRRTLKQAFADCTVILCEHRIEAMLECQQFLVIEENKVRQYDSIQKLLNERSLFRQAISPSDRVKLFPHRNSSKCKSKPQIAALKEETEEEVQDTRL
T1 sequence (P13569 with tags, fused parts or gaps DEL508-508): as above

As for `O=C(O)c1cccc([C@H]2C[C@@H](NC(=O)C3(c4ccc5c(c4)OC(F)(F)O5)CC3)C[C@@H](c3ccccc3)O2)c1` [Example 27, 3-[(2R,4S,6S)-4-({[1-(2,2-difluoro-1,3-benzodioxol-5-yl)cyclopropyl]carbonyl}amino)-6-phenyltetrahydro-2H-pyran-2-yl]benzoic acid], the values for the EC50 at F508delCFTR and at F508del/F508del CFTR were 0.28 µM and 0.1 µM, respectively. The Maximum % activity at F508delCFTR was 109%; on F508del/F508del CFTR it was 94%.

Take `O=C(O)c1cccc([C@H]2C[C@@H](NC(=O)C3(c4ccc5c(c4)OC(F)(F)O5)CC3)C[C@@H](c3ccccc3)O2)c1` (racemic) [Example 24, rac-3-[(2R,4S,6S)-4-({[1-(2,2-difluoro-1,3-benzodioxol-5-yl)cyclopropyl]carbonyl}amino)-6-phenyltetrahydro-2H-pyran-2-yl]benzoic acid]: at F508delCFTR, a half-maximal response (EC50) required 0.5 µM and the Maximum % activity amounted to 109%. On F508del/F508del CFTR, the EC50 is 0.34 µM and the “Maximum % activity” value came to 76%.

Turning to `O=C(O)c1cccc([C@H]2C[C@@H](NC(=O)C3(c4ccc5c(c4)OC(F)(F)O5)CC3)CCO2)c1` [Example 19, 3-[(2R,4S)-4-({[1-(2,2-difluoro-1,3-benzodioxol-5-yl)cyclopropyl]carbonyl}amino)tetrahydro-2H-pyran-2-yl]benzoic acid], at F508delCFTR, the response was half-maximal at 2.23 µM (EC50) and the Maximum % activity is 100%. For the same molecule, on F508del/F508del CFTR, the EC50 stood at 1.03 µM and the “Maximum % activity” value was 87%.

Turning to `O=C(O)c1ccc([C@H]2C[C@@H](NC(=O)C3(c4ccc5c(c4)OC(F)(F)O5)CC3)C[C@@H](c3ccccc3)O2)c(F)c1` (racemic) [Example 60, rac-4-[(2R,4S,6S)-4-({[1-(2,2-difluoro-1,3-benzodioxol-5-yl)cyclopropyl]carbonyl}amino)-6-phenyltetrahydro-2H-pyran-2-yl]-3-fluorobenzoic acid], the EC50 on F508delCFTR was found to be 0.27 µM; on F508del/F508del CFTR it was 0.14 µM. Also, the Maximum % activity on F508delCFTR is 97%; at F508del/F508del CFTR, 83%.

With `O=C(O)c1ccc([C@H]2C[C@@H](NC(=O)C3(c4ccc5c(c4)OC(F)(F)O5)CC3)C[C@@H](c3ccccc3)O2)cc1` (single isomer, unassigned) [Example 53], on F508delCFTR, the EC50 is 0.3 µM and the Maximum % activity worked out at 81%. Moreover, at F508del/F508del CFTR, the concentration for a half-maximal effect (EC50) stood at 0.26 µM and the “Maximum % activity” value worked out at 73%.

As to `COc1ccc([C@@H]2C[C@H](NC(=O)C3(c4ccc5c(c4)OC(F)(F)O5)CC3)C[C@H](c3ccc(C(=O)O)cc3)O2)cc1` (racemic) [Example 57, rac-4-[(2R,4R,6S)-4-({[1-(2,2-difluoro-1,3-benzodioxol-5-yl)cyclopropyl]carbonyl}amino)-6-(4-methoxyphenyl)tetrahydro-2H-pyran-2-yl]benzoic acid], on F508delCFTR, the EC50 is 0.58 µM and the Maximum % activity is listed as 90%.

As to `COC(=O)c1ccc([C@H]2C[C@@H](NC(=O)C3(c4ccc5c(c4)OC(F)(F)O5)CC3)C[C@@H](c3ccccc3)O2)c(F)c1` (racemic) [Example 63, methyl rac-4-[(2R,4S,6S)-4-({[1-(2,2-difluoro-1,3-benzodioxol-5-yl)cyclopropyl]carbonyl}amino)-6-phenyltetrahydro-2H-pyran-2-yl]-3-fluorobenzoate], at F508delCFTR, a half-maximal effect (EC50) was put at 0.86 µM and the Maximum % activity came out at 105%.

On to `COC(=O)c1ccc([C@H]2C[C@H](NC(=O)C3(c4ccc5c(c4)OC(F)(F)O5)CC3)C[C@@H](c3ccccc3)O2)cc1` (racemic) [Example 47, methyl rac-4-[(2R,4R,6S)-4-({[1-(2,2-difluoro-1,3-benzodioxol-5-yl)cyclopropyl]carbonyl}amino)-6-phenyltetrahydro-2H-pyran-2-yl]benzoate], for which, at F508delCFTR, the EC50 turned out to be 6.47 µM and the Maximum % activity stood at 73%.

As for `COC(=O)c1ccc([C@@H]2C[C@H](NC(=O)C3(c4ccc5c(c4)OC(F)(F)O5)CC3)C[C@H](c3ccc(C(=O)OC)cc3)O2)cc1` [Example 51, dimethyl rac-4,4′-[(2R,4s,6S)-4-({[1-(2,2-difluoro-1,3-benzodioxol-5-yl)cyclopropyl]carbonyl}amino)tetrahydro-2H-pyran-2,6-diyl]dibenzoate], at F508delCFTR, it took 0.76 µM to reach a half-maximal effect (EC50) and the Maximum % activity came to 103%.

Take `Cc1cc(C(=O)O)ccc1[C@@H]1C[C@H](NC(=O)C2(c3ccc4c(c3)OC(F)(F)O4)CC2)CCO1` (stereo in doubt) [Example 42, rel-4-[(2S,4R)-4-({[1-(2,2-difluoro-1,3-benzodioxol-5-yl)cyclopropyl]carbonyl}amino)tetrahydro-2H-pyran-2-yl]-3-methylbenzoic acid]: on F508delCFTR, a half-maximal response (EC50) required 6.87 µM and the Maximum % activity stood at 36%.

In the case of `Cc1cc(C(=O)O)cc([C@@H]2C[C@H](NC(=O)C3(c4ccc5c(c4)OC(F)(F)O5)CC3)C[C@H](c3ccccc3)O2)c1` (single isomer, unassigned) [Example 76], at F508delCFTR, the EC50 was determined as 1.59 µM and the Maximum % activity came out at 38%.

Take `CCOC(=O)c1cc(C)cc([C@H]2C[C@@H](NC(=O)C3(c4ccc5c(c4)OC(F)(F)O5)CC3)C[C@@H](c3ccccc3)O2)c1` (racemic) [Example 72, ethyl rac-3-[(2R,4S,6S)-4-({[1-(2,2-difluoro-1,3-benzodioxol-5-yl)cyclopropyl]carbonyl}amino)-6-phenyltetrahydro-2H-pyran-2-yl]-5-methylbenzoate]: on F508delCFTR, a half-maximal effect (EC50) was put at 1.16 µM and the Maximum % activity is listed as 106%.

With `C[C@@H]1C[C@H](NC(=O)C2(c3ccc4c(c3)OC(F)(F)O4)CC2)C[C@H](c2ccc(C(=O)O)cc2)O1` (racemic) [Example 45, rac-4-[(2R,4S,6R)-4-({[1-(2,2-difluoro-1,3-benzodioxol-5-yl)cyclopropyl]carbonyl}amino)-6-methyltetrahydro-2H-pyran-2-yl]benzoic acid], at F508delCFTR, the response was half-maximal at 2 µM (EC50) and the Maximum % activity was 101%.

For the molecule `COC(=O)c1ccc([C@H]2C[C@@H](NC(=O)C3(c4ccc5c(c4)OC(F)(F)O5)CC3)C[C@@H](c3ccccc3)O2)cc1` (racemic) [Example 48, methyl rac-4-[(2R,4S,6S)-4-({[1-(2,2-difluoro-1,3-benzodioxol-5-yl)cyclopropyl]carbonyl}amino)-6-phenyltetrahydro-2H-pyran-2-yl]benzoate], on F508delCFTR, a half-maximal response (EC50) required 0.83 µM and the Maximum % activity is reported as 100%.

On to `COC(=O)c1cccc([C@H]2C[C@H](NC(=O)C3(c4ccc5c(c4)OC(F)(F)O5)CC3)C[C@@H](c3ccccc3)O2)c1` (racemic) [Example 22, methyl rac-3-[(2R,4R,6S)-4-({[1-(2,2-difluoro-1,3-benzodioxol-5-yl)cyclopropyl]carbonyl}amino)-6-phenyltetrahydro-2H-pyran-2-yl]benzoate], for which, at F508delCFTR, it took 2.18 µM to reach a half-maximal effect (EC50) and the Maximum % activity stood at 63%.

What is called EC50 is the concentration that produces a half-maximal response.
